Measurements from ChEMBL document CHEMBL5532661, “Discovery of a Novel Glucagon-like Peptide-1 (GLP-1) Analogue from Bullfrog and Investigation of Its Potential for Designing GLP-1-Based Multiagonists” (J Med Chem, 2024).
Numbered stars: 1 amine (or outer) side, 2 acyl side, 3 side chain; on linkers, the order of the positions; unused ones are H or OH. Side chains are listed from the residue outwards. Peptide text beside a SMILES is read from it. * marks the point of attachment. γGlu = O=C(O)[C@H](CCC(=O)[*:2])N[*:1]; Palmitoyl = CCCCCCCCCCCCCCCC(=O)*

Assays:
Format in all cases: functional, cell-based
[1] = biological target: T1, Glucagon-like peptide 1 receptor (Homo sapiens, UniProt P43220); assay: Agonist activity at human GLP-1 receptor expressed in HEK293 cells assessed as cAMP level by measuring relative percent (GLP-1 EC50/compound EC50) measured after 60 mins by HTRF based assay relative to GLP-1
[2] = biological target: T1, Glucagon-like peptide 1 receptor; assay: Agonist activity at human GLP-1 receptor expressed in HEK293 cells assessed as cAMP level measured after 60 mins by HTRF based assay
Glucagon receptor [3] = biological target: T2, Glucagon receptor (Homo sapiens, UniProt P47871); assay: Agonist activity at human GCGR expressed in HEK293 cells assessed as cAMP level by measuring relative percent (glucagon EC50/compound EC50) measured after 60 mins by HTRF based assay relative to glucagon
Glucagon receptor [4] = biological target: T2, Glucagon receptor; assay: Agonist activity at human GCGR expressed in HEK293 cells assessed as cAMP level measured after 60 mins by HTRF based assay

T1 sequence (P43220 whole entry): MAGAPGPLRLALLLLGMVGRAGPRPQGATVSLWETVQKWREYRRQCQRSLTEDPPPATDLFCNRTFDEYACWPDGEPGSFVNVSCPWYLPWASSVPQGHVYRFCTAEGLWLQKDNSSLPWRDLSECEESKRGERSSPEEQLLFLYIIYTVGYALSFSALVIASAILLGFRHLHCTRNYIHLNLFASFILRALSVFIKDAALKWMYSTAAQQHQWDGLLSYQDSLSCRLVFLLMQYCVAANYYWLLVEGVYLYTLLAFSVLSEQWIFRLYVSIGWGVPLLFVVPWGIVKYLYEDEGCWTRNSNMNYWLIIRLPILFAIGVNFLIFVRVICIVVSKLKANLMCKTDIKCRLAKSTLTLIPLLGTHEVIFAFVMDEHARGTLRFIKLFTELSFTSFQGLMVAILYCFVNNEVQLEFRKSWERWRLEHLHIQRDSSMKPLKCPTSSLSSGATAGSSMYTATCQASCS
T2 sequence (P47871 whole entry): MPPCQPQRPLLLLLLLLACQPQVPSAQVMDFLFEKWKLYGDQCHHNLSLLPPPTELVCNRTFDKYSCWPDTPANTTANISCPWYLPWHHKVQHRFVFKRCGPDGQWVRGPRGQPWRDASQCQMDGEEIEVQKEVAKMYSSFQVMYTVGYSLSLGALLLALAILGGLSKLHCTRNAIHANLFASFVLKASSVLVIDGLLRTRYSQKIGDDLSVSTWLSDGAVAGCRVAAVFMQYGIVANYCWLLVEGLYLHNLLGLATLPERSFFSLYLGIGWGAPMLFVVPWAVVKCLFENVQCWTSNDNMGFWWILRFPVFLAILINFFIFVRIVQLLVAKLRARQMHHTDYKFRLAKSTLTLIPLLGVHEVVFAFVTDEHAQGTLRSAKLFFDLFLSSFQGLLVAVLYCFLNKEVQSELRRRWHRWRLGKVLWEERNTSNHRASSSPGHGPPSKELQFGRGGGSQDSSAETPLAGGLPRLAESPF

Row | Compound | EC50 [2] [nM] | Activity (Glucagon receptor [3]) [%] | EC50 (Glucagon receptor [4]) [nM] | Activity [1] [%] | Activity ([1]; filed as agonist) [%] | Activity (Glucagon receptor [3]; filed as agonist) [%]
1 | CCCCCCCCCCCCCCCC(=O)N[C@@H](CCC(=O)NCCCC[C@H](NC(=O)[C@H](CO)NC(=O)[C@@H]1CCCN1C(=O)[C@@H]1CCCN1C(=O)[C@@H]1CCCN1C(=O)[C@H](C)NC(=O)CNC(=O)[C@H](CO)NC(=O)[C@H](CO)NC(=O)[C@@H]1CCCN1C(=O)CNC(=O)CNC(=O)[C@H](CC(N)=O)NC(=O)[C@H](CCCCN)NC(=O)[C@H](CC(C)C)NC(=O)[C@H](Cc1c[nH]c2ccccc12)NC(=O)[C@H](CC(=O)O)NC(=O)[C@@H](NC(=O)[C@H](Cc1ccccc1)NC(=O)[C@H](CC(=O)O)NC(=O)[C@H](CCC(N)=O)NC(=O)[C@H](C)NC(=O)[C@H](CCCNC(=N)N)NC(=O)[C@H](CCCNC(=N)N)NC(=O)[C@H](CO)NC(=O)[C@H](CC(=O)O)NC(=O)[C@H](CC(C)C)NC(=O)[C@H](Cc1ccc(O)cc1)NC(=O)[C@H](CCCCN)NC(=O)[C@H](CO)NC(=O)[C@H](CCSC)NC(=O)[C@H](CC(=O)O)NC(=O)[C@H](CO)NC(=O)[C@@H](NC(=O)[C@H](Cc1ccccc1)NC(=O)[C@@H](NC(=O)CNC(=O)[C@H](CCC(N)=O)NC(=O)[C@H](CO)NC(=O)[C@@H](N)Cc1c[nH]cn1)[C@@H](C)O)[C@@H](C)O)C(C)C)C(N)=O)C(=O)O (H-HSQGTFTSDMSKYLDSRRAQDFVDWLKNGGPSSGAPPPSK([γGlu-Palmitoyl])-NH2) | 0.068 | 17 | 0.53 |  | 78 | 
2 | H-HSQGTFTSDMSKYLDSRRAQDFVDWLIKGRPSSGAPPPS-NH2 | 0.13 | 10 | 0.91 |  | 41 | 
3 | H-HSQGTFTSDMSKYLDSRRAQDFVDWLKNGGPSSGAPPPS-NH2 | 0.016 |  | 0.052 |  | 331 | 177
4 | H-HSQGTFTSDMSSYLDSRRAQDFVDWLIKGRPSSGAPPPS-NH2 | 0.21 | 5 | 1.8 | 25 |  | 
5 | H-HSQGTFTSDMSSYLDSRRAQDFVDWLKNGGPSSGAPPPS-NH2 | 0.061 |  | 0.15 |  | 87 | 61
6 | H-HSQGTFTSDMSSYLDSRRAQDFVDWLMNT-NH2 | 0.96 | 18 | 0.51 | 6 |  | 

Further lines, with some results ahead:

Row | EC50 [2] [nM] | Activity (Glucagon receptor [3]) [%] | EC50 (Glucagon receptor [4]) [nM] | Activity [1] [%] | Compound | Activity ([1]; filed as agonist) [%] | Activity (Glucagon receptor [3]; filed as agonist) [%]
7 | 0.81 | 4 | 2.6 | 7 | H-HSQGTFTSDMSKYLDSRRAQDFVDWLIKG-NH2 |  | 
8 | 0.28 | 5 | 1.8 | 19 | H-HSQGTFTSDMSKYLDSRRAQDFVDWLIKGR-NH2 |  | 
9 | 0.091 |  | 0.18 |  | H-HSQGTFTSDMSKYLDSRRAQDFVDWLIKGRNRNNIA-NH2 | 58 | 51
10 | 0.7 | 3 | 3.1 | 5 | H-HSQGTFTSDMSSYLDSRRAQDFVDWLIKGR-NH2 |  | 
11 | 0.11 | 11 | 0.85 |  | H-HSQGTFTSDMSSYLDSRRAQDFVDWLMNTKRNRNNIA-NH2 | 45 | 
12 | 0.87 | 3 | 3.5 | 6 | H-HSQGTFTSDMSSYLDSRRAQEFVDWLIKGR-NH2 |  | 
